How the values were obtained:
[1] = tested on: rat orthotopic liver transplantation model; conditions: donors treated; with vehicle all recipients died; cited from earlier work
injured motoneurones = conditions: cited from earlier work
[2] = tested on: streptozotocin-induced neuropathy; conditions: cited from earlier work
[3] = tested on: permeability of blood brain barrier; conditions: vascular insult evoked by sub-arachnoidal autologous blood; cited from earlier work
HSP70b mRNA [4] = test: Cellular expression of HSP-70 mRNA in Hela cells (real-time PCR); type: cell-based; conditions: fold induction of HSP-70b mRNA relative to the vehicle treated control; 4 hours; normalized to 18S rRNA
Method: (§1) Experiments set forth in this section were conducted to determine whether the compounds of the present invention are able to elevate the expression of HSP-70 gene in cells.
(§2) Hela cell-line or primary mixed neurons derived from neonatal rat cerebellum were employed. Induction was carried out for the indicated dose(s) for 4 hours duration and total RNA was isolated. Expression of HSP70b mRNA along-with expression of 18S rRNA was monitored by real-time PCR. HSP70b mRNA expression was normalized relative to the expression of 18S rRNA.
(§3) The results for test compounds were expressed as fold induction of HSP-70 mRNA relative to vehicle treated control and are as shown in Table 2 & 3.

TNF-α mRNA = test: Inhibition of LPS-induced TNF-α expression in PMA differentiated THP-1 cells; type: cell-based, Human; conditions: LPS (1 ug/ml) and compound for 4 hours, LPS alone as 100%
Method: The purpose of the present study was to determine the inhibition of lipopolysaccharide(LPS)-induced TNF-α expression in phorbol merstyl ester (PMA) differentiated THP-1 cells.
Human monocytic leukaemia cell line (THP-1), differentiated into macrophage-like cells by PMA treatment was employed. Differentiated cells were treated with either LPS (1 ug/ml) alone or with LPS (1 ug/ml) and compound for 4 hours. Total RNA was isolated and expression of TNF-αmRNA along-with expression of 18S rRNA was monitored by real-time PCR. TNF-α mRNA expression was normalized relative to the expression of 18S rRNA Considering TNF-α expression for cells treated with LPS alone as 100%; the results for test compounds were expressed as % inhibition of TNF-α expression and are as shown in Table 4

HSP70b mRNA [5] = test: Cellular expression of HSP-70 mRNA in primary mixed neurons (real-time PCR); type: cell-based; conditions: fold induction of HSP70b mRNA relative to vehicle treated control; primary mixed neurons from neonatal rat cerebellum; 4 hours; normalized to 18S rRNA
Method: as §1, §2, §3

male Sprague Dawley rats = test: Neuroprotective activity, transient cerebral ischemia (intraluminal suture occlusion); type: in vivo, rat
Method: Transient cerebral ischemia (for 2 hit) was induced in male Sprague Dawley rats of 240-270 g body weight under halothane anaesthesia by the intraluminal suture occlusion technique—inserting a 3-0 polyamide suture from proximal external carotid artery into the lumen of internal carotid artery (Longa E Z. et al. Stroke 20: 84-91; 1989). During the entire surgical procedure for the induction of stroke, the body temperature of the animal was maintained at 37° C., using a homoeothermic blanket. At the end of 2 hrs the suture was removed for reperfusion. The test compound was administered to animals at 8th hour post initiation of occlusion and subsequently at specified interval. At the end of 7 days all the animals were sacrificed and infarct was characterized after staining with triphenyl tetrazolium chloride (TTC). The images of the stained slices were captured using a scanner and was analyzed for infarct size and edema using Scion image software. Neurological scores were obtained at different time points after surgical recovery and improvement was assessed after reperfusion by calculating the percentage change from baseline scores (scores during ischemia).

CC(=O)CCC=C(C)CC/C=C(\C)CC/C=C(\C)CCC=C(C)C (mixture of isomers) [Geranylgeranyl acetone]
7-day survival of the recipients [1]: ~90%

[O-][n+]1cccc(/C(Cl)=N/OC[C@H](O)CN2CCCCC2)c1 [BRX-220]
motoneurones survived (injured motoneurones; 14 days after injury, 21% in vehicle group): 39%
motoneurons survived (injured motoneurones; at 10 weeks, 15% in untreated group): 42%

OC(CO/N=C(\Cl)c1cccnc1)CN1CCCCC1 (stereo not drawn) [Bimoclomol]
reduction of nerve conduction slowing, motor [2]: 38%
reduction of nerve conduction slowing, sensory [2]: 42%
retardation of elevated ischemic resistance [2]: 71%
reduction of size of cerebral tissue stained with Evans blue leakage [3]: 39%

COc1ccc(CC2N(C(=O)C(C)(C)C)CC(=Cc3ccccn3)C(=O)C2(C)C)cc1 (stereo not drawn) [Compound 16, 1-(2,2-Dimethyl-propionyl)-2-(4-methoxy-benzyl)-3,3-dimethyl-5-[1-pyridin-2-yl-methylidene]-piperidin-4-one]
HSP Induction in Hela cells (HSP70b mRNA [4]): (++++) (>1536 fold)
TNF-alpha Inhibition (TNF-α mRNA): (++++) (>80%)

CC1(C)CN(Cc2ccccc2)CC(=Cc2cccc(N3CCOCC3)n2)C1=O [Compound 20, 1-Benzyl-3,3-dimethyl-5-[1-(6-morpholin-4-yl-pyridin-2-yl)-methylidene]-piperidin-4-one]
HSP Induction in Hela cells (HSP70b mRNA [4]): (+++) (193-1536 fold)
TNF-alpha Inhibition (TNF-α mRNA): (++) (41-60%)

CC1(C)CN(Cc2ccccc2)C(c2ccccn2)C(=Cc2cccc(N3CCCCC3)n2)C1=O (stereo not drawn) [Compound 34, 1-Benzyl-5,5-dimethyl-3-[1-(3,4,5,6-tetrahydro-2H-[1,2′]bipyridinyl-6′-yl)-methylidene]-2,3,5,6-tetrahydro-1H-[2,2′]bipyridinyl-4-one]
HSP Induction in Hela cells (HSP70b mRNA [4]): (++) (25-192 fold)

CC1(C)CN(C(=O)Oc2ccccc2)CC(=Cc2cccc(N3CCCCC3)n2)C1=O [Compound 35, 3,3-Dimethyl-4-oxo-5-[1-(3,4,5,6-tetrahydro-2H-[1,2′]bipyridinyl-6′-yl)-methylidene]-piperidine-1-carboxylic acid phenyl ester]
HSP Induction in Hela cells (HSP70b mRNA [4]): (++++) (>1536 fold)

CC1(C)CN(C(=O)Oc2ccccc2)CC(=Cc2cccc(N3CCOCC3)n2)C1=O [Compound 36, 3,3-Dimethyl-5-[1-(6-morpholin-4-yl-pyridin-2-yl)-methylidene]-4-oxo-piperidine-1-carboxylic acid phenyl ester]
HSP Induction in Hela cells (HSP70b mRNA [4]): (++++) (>1536 fold)

CC1(C)CN(Cc2ccccc2)CC(=Cc2nc3ccccc3c(=O)[nH]2)C1=O [Compound 37, 2-[1-Benzyl-5,5-dimethyl-4-oxo-piperidin-3-ylidenemethyl]-3H-quinazolin-4-one]
HSP Induction in Hela cells (HSP70b mRNA [4]): (++++) (>1536 fold)

COc1ccc(CC2N(C(=O)Nc3c(C(C)C)cccc3C(C)C)CC(=Cc3ccccn3)C(=O)C2(C)C)cc1 (stereo not drawn) [Compound 68, 2-(4-Methoxy-benzyl)-3,3-dimethyl-4-oxo-5-[1-pyridin-2-yl-methylidene]-piperidine-1-carboxylic acid (2,6-diisopropyl-phenyl)-amide]
HSP Induction in mixed neuron (HSP70b mRNA [5]): (++++) (>16 fold)
% reduction Edema (male Sprague Dawley rats; i.p. 15.2 mg/kg, multiple dose, from 8th hour post initiation of occlusion, 2 h ischemia, sacrificed at 7 days): 51.0%
% reduction Infarct (male Sprague Dawley rats; i.p. 15.2 mg/kg, multiple dose, from 8th hour post initiation of occlusion, 2 h ischemia, sacrificed at 7 days, TTC staining): 30.0%
% improvement Mean Neurological Score (male Sprague Dawley rats; i.p. 15.2 mg/kg, multiple dose, percentage change from baseline scores (scores during ischemia)): 61.1%
neuroprotective activity in an animal model of cerebral ischemia (male Sprague Dawley rats; result in words): reduced infarct size and brain edema with improvement in neurological deficit
TNF-alpha Inhibition (TNF-α mRNA): (++++) (>80%)

Reference: patent US20100190824A1, “Novel Substituted Piperidones as HSP Inducers” (priority 2007, published 2010)
